Tests used:
[1] = tested on: FGF-1; assay: Real-Time Quantitative PCR of mRNA gene expression in HT1080 cells; type: cell-based, human; conditions: 24 h, 2.5 uM, mean value
Experimental: (§1) To evaluate the effect of heparanase inhibitors on the tumor transcription of genes encoding for proangiogenic factors, such as FGF1/2, VEGF, MMP-9, HSPE-1, the relative mRNA levels were analyzed by quantitative Real-Time Quantitative PCR.
(§2) To perform the assay, HT1080 (human fibrosarcoma) cells were cultured in complete medium containing 10%FCS (fetal calf serum). Cells were plated in 24-well plates and treated at fixed concentration (i.e., highest non-toxic concentration) of test compounds. After 24 h, cells were detached, collected and total RNA extracted by RNeasy Mini Kit (QIAGEN). Following reverse transcription step, FGF1/2, VEGF, MMP-9, HSPE-1 mRNA levels, were quantified by qPCR using the advanced Universal SYBR Green Supermix (Bio Rad) and ABI PRISM 7900HT Thermal Cycler System (Perkin Elmer), according to the manufacturer's instructions. Appropriate no-RT and non-template controls were included in each 96-well PCR reaction, and dissociation analysis was performed at the end of each run to confirm the specificity of the reaction. Relative levels of RNA were calculated using the ddCt method. Standard curve and sample data were run in duplicate. In Table 4 a mean value is reported.

[2] = tested on: MMP-9; assay: as above; type: cell-based, human; conditions: 24 h, 2.5 uM, mean value
Experimental: as §1, §2

[3] = tested on: FGF-2; assay: as above; type: cell-based, human; conditions: 24 h, 2.5 uM, mean value
Experimental: as §1, §2

[4] = tested on: VEGF; assay: as above; type: cell-based, human; conditions: 24 h, 2.5 uM, mean value
Experimental: as §1, §2

[5] = tested on: HPSE-1; assay: as above; type: cell-based, human; conditions: 24 h, 2.5 uM, mean value
Experimental: as §1, §2

[6] = tested on: U87MG (human glioblastoma astrocytoma); assay: Cell adhesion assay on matrigel coated wells; type: cell-based; conditions: 2.5 µM, percent of adhesion with respect to the control (100%)
Experimental: (§3) Cell surface, non-integrin molecules such as heparan sulfate proteoglycans (HSPGs) may be involved in the regulation of early adhesive stages of cell-ECM interactions. A cell adhesion assay has been employed to determine if the newly designed heparanase inhibitors were able to interfere with adhesion properties of cancer cells.
(§4) HT1080 (human fibrosarcoma) and U87MG (human glioblastoma astrocytoma) cells were treated for 18-20 h with test compounds in complete medium supplemented with 10% FCS. Then cells were collected, washed in complete medium, and added to matrigel coated wells in triplicate, at previously identified optimal seeding density, and incubated at 37 °C in complete medium for times ranging from 15 minutes to 4h, according to the cell line. After incubation, the wells were washed three times with serum-free medium and the remaining firmly attached cells were stained with crystal-violet 0.1%. Optical density was measured at 560 nm by Victor 3 (Perkin-Elmer) plate analyzer. Each experiment was repeated three times.
(§5) Table 3. […] In Invasion assay, data were expressed as the percent invasion (range) with respect to cell migration through uncoated insert membrane. In Adhesion assay, data were expressed as the percent of adhesion with respect to the control (100%).

[7] = tested on: HT1080 (human fibrosarcoma); assay: Cell adhesion assay on matrigel coated wells; type: cell-based; conditions: 2.5 µM, percent of adhesion with respect to the control (100%)
Experimental: as §3, §4, §5

[8] = tested on: U87MG (human glioblastoma astrocytoma); assay: Matrigel cell invasion assay; type: cell-based; conditions: Homo sapiens, U-87 MG, read-out: Invasion Assay Inhibition U87MG
Experimental: (§6) Heparanase inhibitors were then evaluated for their activity on the invasive potential of HT1080 (human fibrosarcoma), U87MG (human glioblastoma astrocytoma) and U2OS (human osteosarcoma) human cell lines, using the Matrigel cell invasion assay which allows to assess the cell invasion ability of malignant and normal cells.
(§7) Invasion assay was performed using BioCoat cell culture inserts (BioCoat 8.0µm PET Membrane 24 Well Permeable Supports, Corning). Filters were coated with 100 µl of 300 µg/ml Matrigel dissolved in coating buffer (0.01 M Tris pH 8.0, 0.7% NaCl) (Becton-Dickinson Sciences). DMEM (Dulbecco's Modified Eagle's Medium) containing 5% FBS was added to the lower chambers. Cells were pre-treated with heparanase inhibitors for 24 h, detached and added to the upper chambers in media containing the inhibitors. Cells were allowed to invade for 24 h at 37°C in a CO2 incubator and then unmigrated cells were removed from the upper chamber with a cotton swab. The invading cells were fixed, stained with 0.1% crystal violet for 10 min at room temperature, photographed and counted under inverted microscope.
(§8) Test compounds were analyzed at fixed concentration (2.5 µM) for several fields, in duplicates. Activity of test compounds was compared to the reference compound. Activity of most interesting compound was confirmed in a second cell invasion assay. Data were expressed as the percent invasion with respect to cell migration through uncoated insert membrane.
as §5

[9] = tested on: HT1080 (human fibrosarcoma); assay: Matrigel cell invasion assay; type: cell-based; conditions: HT-1080, read-out: Invasion Assay Inhibition HT1080
Experimental: as §6, §7, §8, §5

[10] = tested on: U2OS (human osteosarcoma); assay: Matrigel cell invasion assay; type: cell-based; conditions: Homo sapiens, read-out: Invasion Assay Inhibition U2OS
Experimental: as §6, §7, §8, §5

[11] = tested on: genes encoding for proangiogenic factors; assay: Real-Time Quantitative PCR in HT1080 cells, summary statement for all factors; type: cell-based, human; conditions: 2.5 µM, result in words
Experimental: as §1
as §2, with “reported. […]” for “reported.”

Q: `Cn1cc(NC(=O)c2ccc(Oc3ccc(C(=O)Nc4cc(C(=O)Nc5cccc(CC(=O)N[C@@H](Cc6ccccc6)C(=O)O)c5)n(C)c4)cc3)cc2)cc1C(=O)Nc1cccc(CC(=O)N[C@@H](Cc2ccccc2)C(=O)O)c1` [Compound 36e, (2S,2'S)-2,2'-((2,2'-(((4,4'-((4,4'-Oxybis(benzoyl))bis(azanediyl))bis(1-methyl-1H-pyrrole-2,2'-carbonyl))bis(azanediyl))bis(3,1-phenylene))bis(acetyl))bis(azanediyl))bis(3-phenylpropanoic acid)] was tested. Which “Gene Expression (% mRNA vs. control) FGF-1” value [1] did it give?
A: ~ 62%

Q: What about the “Gene Expression (% mRNA vs. control) MMP-9” value [2] of the same compound?
A: ~ 50%

Q: And the “Gene Expression (% mRNA vs. control) FGF-2” value [3]?
A: ~ 64%

Q: And the “Gene Expression (% mRNA vs. control) VEGF” value [4]?
A: ~ 51%

Q: And the “Gene Expression (% mRNA vs. control) HPSE-1” value [5]?
A: ~ 88%

Q: What about the “Adhesion Assay (%) U87MG” value [6] of the same compound?
A: 73.0%

Q: And the “Adhesion Assay (%) HT1080” value [7]?
A: 91.2%

Q: What about the inhibition at 2.5 µM [8] of the same compound?
A: 50 to 90%

Q: What about the inhibition at 2.5 µM [9] of the same compound?
A: 50 to 90%

Q: And the inhibition at 2.5 µM [10]?
A: < 50%

Q: What about the “inhibition of genes expression encoding for proangiogenic factors” value [11] of the same compound?
A: significant inhibition

From patent publication EP3381898A1, “SYMMETRICAL TRIS-ARYL-AMIDE DERIVATIVES AND THEIR USE AS ANTI-HEPARANASE” (priority 2017, dated 2018)
